PubChem BioAssay (NCI)
Where “and” joins values, the source holds several entries; their conditions need not be identical. Identical values can stand only once.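 These data come from cells grown in 96-well plates and exposed to compound for 48 hours at five concentrations. The concentration for 50% growth inhibition is given as GI50. TGI marks complete inhibition of growth.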

Columns and labels:
Assay in all cases: growth of human tumour cells (NCI), 48 h
[1] = test system: 786-0 renal
[2] = test system: HL-60(TB) leukemia
[3] = test system: MDA-MB-231 breast
[4] = test system: NCI-H23 lung
[5] = test system: NCI-H460 lung
[6] = test system: SF-295 CNS
[7] = test system: SK-MEL-2 melanoma
[8] = test system: SK-OV-3 ovarian
[9] = test system: U251 CNS
[10] = test system: UACC-257 melanoma

Compound | GI50 [1] | TGI [1] | GI50 [2] | TGI [2] | GI50 [3] [µM] | TGI [3] | GI50 [4] | TGI [4] | GI50 [5] | TGI [5] | GI50 [6] | TGI [6] | GI50 [7] | TGI [7] | GI50 [8] | TGI [8] | GI50 [9] | TGI [9] | GI50 [10] | TGI [10]
COc1cc2c(cc1OC)C(=O)/C(=C/c1cccc(OCC(=O)c3ccccc3)c1)C2 | 35.5 µM | > 100 µM | 6.44 µM | 61.8 µM | 23.8 | > 100 µM | 22.3 µM | > 100 µM | 13.3 µM | 91.9 µM | 5.06 µM | 40.8 µM | 10.2 µM | > 100 µM | 99.2 µM | > 100 µM | 8.17 µM | > 100 µM | 49.1 µM | > 100 µM
O=C(Oc1ccc(Cl)cc1Cl)c1ccccc1Nc1ccnc(C(F)(F)F)c1 | 1.93 µM | 5.87 µM | 6.63 µM | > 100 µM | 2.24 | 7.92 µM | 3.51 µM | 13.6 µM | 4.26 µM | 33.8 µM | 15.6 µM | 37.2 µM | 20.5 µM | > 100 µM | – | – | – | – | 10.6 µM | 26 µM
COc1cc([C@H]2c3cc4c(cc3O[C@@]3(O)COC(=O)[C@@H]23)OCO4)cc(OC)c1OC | – | > 100 µM | – | > 100 µM | – | > 100 µM | – | – | – | > 100 µM | – | > 100 µM | – | > 100 µM | – | > 100 µM | – | > 100 µM | – | > 100 µM
O=[N+]([O-])c1ccc(C(c2c[nH]c3ccccc23)c2c[nH]c3ccccc23)cc1 | – | 35.2 µM | – | 49 µM | – | 29.3 µM | – | 21.4 µM | – | 12.6 µM | – | > 100 µM | – | 20.1 µM | – | 33.1 µM | – | 45.3 µM | – | 9.79 µM
O=C(CN1CCN(c2ncccn2)CC1)Nc1ccc(Cl)cc1C(=O)c1ccccc1Cl | 62 µM | > 100 µM | 25.3 µM | > 100 µM | > 100 | > 100 µM | > 100 µM | > 100 µM | > 100 µM | > 100 µM | > 100 µM | > 100 µM | > 100 µM | > 100 µM | > 100 µM | > 100 µM | > 100 µM | > 100 µM | > 100 µM | > 100 µM
CN1CC[C@@H](c2c(O)cc(O)c3c(=O)cc(-c4ccccc4Cl)oc23)[C@@H](O)C1 | 0.108 µM | 17.9 µM | 0.0148 µM | 0.0693 µM and 0.338 µM | 0.168 | 0.613 µM and 2.86 µM | 0.0908 µM and 0.103 µM and 0.0453 µM | 0.23 µM and 0.301 µM and 0.189 µM | 0.0681 µM and 0.0693 µM | – | 0.0994 µM and 0.0955 µM and 0.0425 µM | – | 0.124 µM and 0.071 µM | 0.215 µM and 0.209 µM and 0.101 µM | 0.201 µM and 0.428 µM | > 100 µM | – | 31 µM | 0.125 µM and 0.137 µM | 0.366 µM and 0.619 µM and 0.282 µM
C[C@@H]1C[C@@H](O)[C@]2(O)O[C@@H]3C[C@@]4(C=O)[C@@H](CC[C@@H]5[C@@H]4CC[C@]4(C)[C@@H](C6=CC(=O)OC6)CC[C@]54O)C[C@H]3O[C@@H]2O1 | 0.0212 µM and 0.005 µM | 0.0124 µM and 0.0611 µM and 0.0222 µM | 0.015 µM and 0.00692 µM | 0.0285 µM and 0.0322 µM and 0.0169 µM | – | 0.236 µM | 0.0282 µM and 0.005 µM | – | 0.0229 µM | 0.0195 µM and 0.0817 µM and 0.0192 µM | 0.0365 µM and 0.00869 µM | 0.0616 µM and 0.189 µM and 0.139 µM | 0.052 µM and 0.0898 µM | – | 0.0636 µM and 0.0173 µM | – | 0.0449 µM and 0.0153 µM | 0.0725 µM and 0.158 µM and 0.0697 µM | 0.0711 µM and 0.0291 µM | 0.118 µM and 0.266 µM and 0.122 µM
COc1ccc(C(=O)/C(Br)=C/C(=O)O)cc1 | 10.8 µM and 30.7 µM | 56.1 µM and 99.1 µM | 19.1 µM | 95.7 µM and 128 µM | 53.7 | 84 µM and 115 µM | 21.3 µM | 112 µM and 205 µM | 14.4 µM | 300 µM and 72 µM | 33.5 µM | 175 µM and 140 µM | – | 29.3 µM and 32 µM | – | 358 µM and 299 µM | – | 46.5 µM and 52.1 µM | 21.9 µM | 74.4 µM and 85.1 µM
O=C(NNc1nc(Cl)nc(N2CCN(C(c3ccccc3)c3ccccc3)CC2)n1)c1ccccc1 | 2.21 µM | 4.84 µM | 2.15 µM | 6.26 µM | 1.96 | 3.77 µM | 1.83 µM | 3.64 µM | 1.93 µM | 3.77 µM | 10.8 µM | 23.1 µM | 1.83 µM | 3.55 µM | 2.47 µM | 6.94 µM | 1.69 µM | 3.13 µM | 2.06 µM | 4.67 µM
O=C(Nc1ccc(N2CCNCC2)cc1)c1[nH]ncc1Nc1ncnc2sc3c(c12)CCC3 | 0.254 µM | 1.52 µM | 1.2 µM | 3.28 µM | 0.333 | 2.04 µM | 0.268 µM | 1.85 µM | 0.0845 µM | 0.978 µM | 0.359 µM | 1.95 µM | 1.27 µM | 3.01 µM | 0.257 µM | 1.56 µM | 0.108 µM | 0.244 µM | 0.478 µM | 2.43 µM
CCOC(=O)c1ccc(NC(=O)N2CC(C)OC(C)C2)cc1 (stereo unspecified) | > 100 µM | > 100 µM | > 100 µM | > 100 µM | > 100 | > 100 µM | > 100 µM | > 100 µM | > 100 µM | > 100 µM | > 100 µM | > 100 µM | > 100 µM | > 100 µM | > 100 µM | > 100 µM | > 100 µM | > 100 µM | > 100 µM | > 100 µM
C=C1C(=O)O[C@H]2[C@H]1CC/C(COC(=O)c1cc3cc(F)ccc3[nH]1)=C\CC[C@@]1(C)O[C@@H]21 | 1.78 µM | 3.75 µM | 2.07 µM | 9.27 µM | 1.59 | 3.5 µM | 1.9 µM | 4.26 µM | 3.04 µM | 11.5 µM | 7.1 µM | 21.6 µM | 1.95 µM | 4.27 µM | 11.6 µM | 24.1 µM | 1.82 µM | 3.57 µM | 2.28 µM | 4.26 µM
COc1cc(/C(C#N)=C/c2ccc3c(c2OC)OCO3)cc2c1OCO2 | 0.2 µM | 21.5 µM | 0.0314 µM | 0.922 µM | 0.753 | 19.4 µM | 0.162 µM | 11.6 µM | 0.0452 µM | 14.2 µM | 0.0428 µM | 4.36 µM | 0.0461 µM | 6.46 µM | 0.113 µM | 14.2 µM | 0.11 µM | 14 µM | 0.794 µM | > 100 µM
Cc1ncc(CN=Cc2ccc(Cl)cc2)c(N)n1 | – | > 100 µM | – | > 100 µM | – | > 100 µM | – | > 100 µM | – | > 100 µM | – | > 100 µM | – | > 100 µM | – | > 100 µM | – | > 100 µM | – | > 100 µM
CS(=O)(=O)CCNCc1nc(-c2ccc3ncnc(Nc4ccc(F)c(Cl)c4)c3c2)cs1 | 22.9 µM | > 25 µM | > 12.3 µM | > 17.8 µM | 23.6 | > 25 µM | > 25 µM | > 25 µM | 18.7 µM | > 25 µM | > 25 µM | > 25 µM | > 17.6 µM | > 25 µM | 1.96 µM | 11 µM | > 25 µM | > 25 µM | > 25 µM | > 25 µM
COc1ccc2nc(N/N=C(\C)c3ccccn3)cc(C)c2c1 | 0.284 µM | 1.21 µM | 0.384 µM | 7.01 µM | 0.232 | 1.87 µM | 0.44 µM | 4.46 µM | 0.118 µM | 1.13 µM | 0.0487 µM | 0.391 µM | 0.174 µM | 0.973 µM | 0.269 µM | 2.08 µM | 0.261 µM | 1.28 µM | 0.276 µM | 1.09 µM
Cc1cc(-c2ncc(CC(=O)Nc3ccc(-c4cnccn4)cn3)cc2C)ccn1 | > 100 µM | > 100 µM | 39.3 µM | > 100 µM | 55.7 | > 100 µM | 23.6 µM | > 100 µM | 63 µM | > 100 µM | 15.3 µM | > 100 µM | 27.8 µM | > 100 µM | > 100 µM | > 100 µM | 24.6 µM | > 100 µM | 16.6 µM | > 100 µM
O=C1NCc2ccc3c(-c4cccc(Cl)c4)c[nH]c3c21 | 0.276 µM | > 50 µM | 0.146 µM | – | 0.838 | > 25.7 µM | 0.484 µM | > 50 µM | 0.201 µM | > 38.2 µM | 0.199 µM | > 50 µM | 0.317 µM | > 50 µM | 0.339 µM | > 50 µM | 0.247 µM | > 50 µM | > 42.9 µM | > 50 µM
N#Cc1c(-c2nc3ccccc3s2)c(=O)oc2cc(O)ccc12 | – | > 100 µM | – | 66.5 µM | – | 82.5 µM | – | > 100 µM | – | > 100 µM | – | > 100 µM | – | > 100 µM | – | – | – | > 100 µM | – | > 100 µM
Cc1c2c(nn1-c1ccc(S(=O)(=O)NC(=S)Nc3ccccc3)cc1)-c1ccccc1CC2 | 26.4 µM | > 50 µM | > 50 µM | > 50 µM | > 50 | > 50 µM | 46.8 µM | > 50 µM | – | – | > 50 µM | > 50 µM | > 50 µM | > 50 µM | > 50 µM | > 50 µM | 39.6 µM | > 50 µM | > 50 µM | > 50 µM
